Our source for the ΔTm and binding values is publication PMC12368606 (2025).

The structures appear in SMILES notation.

Assay [1] deals with Seq1s (RNA, hairpin) ACCGUGACGGGCCUUUUUGGCUAUACGCGGU
Nature of the assay: UV thermal melting. The following applies: 10 μM NA; Tm 66.9 ± 2.0 to 72.1 ± 1.5 °C.

Assay [2] shares this test system. The assay is described as follows: CSI-TOF mass spectrometry. The following applies: 40 μM NA, 5 μM RNA.
The test system of assay [3] is Seq1s-4U (RNA, hairpin) ACCGUGACGGGCCUUUUGGCUAUACGCGGU
The assay is described as follows: NMR solution structure and titration. The following applies: phosphate buffer, 5% D2O for titration.

Turning to `Cc1ccc2ccc(NC(=O)CCNCCC(=O)NCc3ccc4ccc(=O)[nH]c4n3)nc2n1`, the ΔTm (commonly the change in melting temperature against a reference sample) in assay [1] was 5.2 °C. For the same molecule, the binding entry in assay [2] and in assay [3] was “yes” throughout.
